Reference: patent EP4711361A1, “NITROGEN-CONTAINING HETEROCYCLIC COMPOUND AND USE THEREOF” (Jiangsu Deyuan Pharmaceutical Co.,Ltd., priority 2023, dated 2024)

How the values were obtained:
MDR1-MDCKII cells = test: Permeability test (MDR1-MDCKII monolayer, bidirectional transport); assay type: in vitro ADME; conditions: 2 µM; for Efflux ratio (ER): ER = Papp (BA)/ Papp (AB), 150 min; for Apparent permeability coefficient (Papp (AB), 10^-6 cm/s): pH 7.40, 2.5 hours, A to B
Method: (§1) Experimental objective: The permeability and efflux ratio of the compound of the present disclosure were determined using the MDR1-MDCKII monolayer cell model to assess its membrane permeability and potential for P-gp-mediated efflux transport.
(§2) Experimental protocol: MDR1-MDCKII cells (obtained from the Netherlands Cancer Institute) were seeded in 96-well plates (obtained from Corning) at a cell density of 3.33 × 10^5 cells/mL and cultured for 4 to 7 days to form confluent cell monolayers. Hank's balanced salt solution containing 10 mM HEPES (pH 7.40) was used as the transport buffer. The test compound was evaluated for bidirectional transport at a concentration of 2 µM, with the DMSO concentration in the incubation system maintained below 1%. After adding the samples, the cell plate was incubated at 37±1°C, 5% CO2, and saturated humidity for 2.5 hours. All samples were quantitatively analyzed using the LC-MS/MS method. The apparent permeability coefficient (Papp, cm/s) and efflux ratio (ER) were calculated using the following formula. Apparent permeability coefficient (Papp, cm/s) was calculated using the following formula: Papp = (dCr/dt) x Vr / (A x C0). Herein, dCr/dt represents the cumulative concentration of the compound at the receiving end per unit time (µM/s); Vr is the volume of the solution at the receiving end (with solution volumes at the apical and basolateral ends being 0.075 mL and 0.250 mL, respectively); A is the relative surface area of the cell monolayer (0.143 cm^2); C0 is the initial concentration of the test substance at the dosing end (µM) or the peak area ratio of the reference substance. The efflux ratio was calculated using the following formula: ER = Papp (BA)/ Papp (AB). Table 7: Permeability test results of compounds

human CYP11B1 = target: T1, human CYP11B1 (Homo sapiens, UniProt P15538); test: In vitro activity assay of monoclonal cells overexpressing human CYP11B1; assay type: cell-based; conditions: G402 cells overexpressing human CYP11B1; 1 µM 11-deoxycortisol, 16 hours; cortisol by LC-MS/MS
T1 construct: expressed in transfected cells; host or cells: human renal leiomyoma G402 cells (monoclonal)
T1 sequence (P15538 25-503): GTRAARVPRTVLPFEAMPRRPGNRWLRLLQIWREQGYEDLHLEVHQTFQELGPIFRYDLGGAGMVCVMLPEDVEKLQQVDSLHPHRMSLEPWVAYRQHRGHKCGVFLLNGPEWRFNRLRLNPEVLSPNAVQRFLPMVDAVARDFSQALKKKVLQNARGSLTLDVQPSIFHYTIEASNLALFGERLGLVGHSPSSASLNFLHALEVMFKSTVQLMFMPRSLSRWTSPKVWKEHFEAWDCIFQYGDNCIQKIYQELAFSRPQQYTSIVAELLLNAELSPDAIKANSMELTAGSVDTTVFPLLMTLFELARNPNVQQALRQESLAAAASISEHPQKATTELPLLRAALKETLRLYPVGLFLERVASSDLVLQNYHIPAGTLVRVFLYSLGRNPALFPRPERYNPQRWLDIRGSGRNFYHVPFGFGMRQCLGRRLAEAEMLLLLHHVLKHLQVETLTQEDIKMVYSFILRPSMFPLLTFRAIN
Method: The human renal leiomyoma G402 cell line overexpressing human CYP11B1 was selected to serve as a compound selectivity screening system.
Day 1: Cells were digested, and human renal leiomyoma G402 cells overexpressing CYP11B1 were resuspended to 1×10^5 cells/mL, with 100 µL seeded into a 96-well plate.
(§3) Day 3: The cell supernatant was collected and added to 200 µL of a methanol solution containing internal standards (internal standards: 35 ng/mL ketoprofen or 7.5 ng/mL carbamazepine or 5 ng/mL diphenhydramine or 10 ng/mL tolbutamide). The mixture was vortexed and centrifuged (4000×g, 4°C, 5 minutes). Then, 100 µL of the supernatant was taken and mixed with 100 µL of pure water.
Ratio = Cortisol peak area/Internal standard peak area [formula] Control activity% = (Ratiotestcompound/RatioDMSO) × 100% [formula]
(§4) "Ratio test compound" represents the Ratio values at different concentrations of the test compound.
(§5) "Ratio DMSO" represents the Ratio value without the addition of the test compound. • X = Log (compound concentration) • Y = Control activity%
The IC50 of the test compound was determined by fitting to a nonlinear regression equation using XLfit 5.5.0. Table 4: Results for in vitro activity assay of monoclonal cells overexpressing human CYP11B1

human CYP11B2 = target: T2, human CYP11B2 (Homo sapiens, UniProt P19099); test: In vitro activity assay of monoclonal cells overexpressing human CYP11B2; assay type: cell-based; conditions: G402 cells overexpressing human CYP11B2; 1 µM 11-deoxycorticosterone, 16 hours; aldosterone by LC-MS/MS
T2 construct: expressed in transfected cells; host or cells: human renal leiomyoma G402 cells (monoclonal)
T2 sequence (P19099 25-503): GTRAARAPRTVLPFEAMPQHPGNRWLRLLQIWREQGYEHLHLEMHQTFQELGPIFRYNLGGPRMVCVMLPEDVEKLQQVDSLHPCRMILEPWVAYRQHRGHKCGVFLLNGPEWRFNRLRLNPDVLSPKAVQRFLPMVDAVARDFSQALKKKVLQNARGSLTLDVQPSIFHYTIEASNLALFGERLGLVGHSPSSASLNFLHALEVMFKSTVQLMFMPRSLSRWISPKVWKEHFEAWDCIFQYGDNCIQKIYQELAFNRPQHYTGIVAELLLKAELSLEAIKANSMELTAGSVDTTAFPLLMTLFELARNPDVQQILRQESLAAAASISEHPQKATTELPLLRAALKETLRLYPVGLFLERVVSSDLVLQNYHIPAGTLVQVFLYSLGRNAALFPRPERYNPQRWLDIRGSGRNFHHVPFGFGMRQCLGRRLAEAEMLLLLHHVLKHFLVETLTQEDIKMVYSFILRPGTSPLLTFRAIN
Method: The human renal leiomyoma G402 cell line overexpressing human CYP11B2 was selected to serve as a compound activity screening system. Table 1: Cell and reagent information
2) Compound details: The test compound was prepared as a 10 µM working concentration using DMSO. 3) Experimental procedure
Day 1: Cells were digested, and human renal leiomyoma G402 cells overexpressing human CYP11B2 were resuspended to 1×10^5 cells/mL, with 100 µL seeded into a 96-well plate.
as §3
Ratio = Aldosterone peak area/Internal standard peak area [formula] Control activity% = (Ratiotestcompound/RatioDMSO) × 100% [formula]
as §4, §5
The IC50 of the test compound was determined by fitting to a nonlinear regression equation using XLfit 5.5.0. Table 3: Results for in vitro activity assay of monoclonal cells overexpressing human CYP11B2

in vitro [1] = conditions: human, plasma
in vitro [2] = conditions: rat, plasma
[3] = Permeability test (MDR1-MDCKII monolayer, bidirectional transport); assay type: in vitro ADME; conditions: dog; for efflux ratio at 2.5 h, 2 µM: MDCK-MDR1, pH 7.4, ER = Papp (BA)/ Papp (AB); for Papp A→B at 2.5 h, 2 µM: MDCK-MDR1, pH 7.4, pH 7.40, 2.5 hours, A to B, read-out: Apparent permeability coefficient (Papp (AB), 10^-6 cm/s)
Method: as §1, §2

in vitro [4] = conditions: cynomolgus monkey, plasma
in vivo = conditions: cynomolgus monkey, po, 1 mg/kg
in vitro [5] = conditions: human, microsomes
[6] = tested on: patients with resistant hypertension; conditions: cited from earlier work
[7] = 2 mg dose, patients with resistant hypertension

Compound | Efflux ratio (ER) (MDR1-MDCKII cells) | Apparent permeability coefficient (Papp (AB), 10^-6 cm/s) (MDR1-MDCKII cells) | IC50 (human CYP11B1) | IC50 (human CYP11B2) | further results
CCC(=O)NC1CCCc2c(-c3cc4c(cc3F)N(C)C(=O)CO4)cncc21 (single isomer, unassigned) [Compound 032] | 0.86 | 22.6 10^-6 cm/s | 5.65 µM | 30.1 nM | 
CCC(=O)NC1CCOc2c(-c3cc4ccc(=O)n(C)c4s3)cncc21 (single isomer, unassigned) [Compound 045] | 1.30 | 16.7 10^-6 cm/s | 34.9 µM | 42.7 nM | 
CCC(=O)NC1CCCc2c(-c3cc(F)c4c(ccc(=O)n4C)c3)cncc21 (single isomer, unassigned) [Compound 018] |  |  | 3.81 µM | 20.7 nM | fraction unbound at 4 h, 2 µM (in vitro [1]): 0.191; fraction unbound at 4 h, 2 µM (in vitro [2]): 0.08; efflux ratio at 2.5 h, 2 µM [3]: 1.32; Papp A→B at 2.5 h, 2 µM [3]: 24.6 ×10⁻⁶ cm/s; fraction unbound at 4 h, 2 µM (in vitro [4]): 0.205; AUC(0-t) at 24 h (in vivo): 7.59 µM·h; Cmax (in vivo): 1310 nM; half-life (in vivo): 321 min; CLint scaled at 1 µM (in vitro [5]): < 8.6 mL/min/kg
CCC(=O)N[C@@H]1CCCc2c(-c3ccc4c(c3)CCC(=O)N4C)cncc21 [Baxdrostat] |  |  |  |  | office systolic and diastolic blood pressure [6, 7]: demonstrated efficacy; safety and tolerability [6, 7]: favorable safety and tolerability profiles; aldosterone secretion levels ([6]; clinical studies): dose-dependent reduction; blood pressure ([6]; clinical studies): dose-dependent reduction; blood pressure reduction ([6]; phase 2 trials): significant blood pressure reduction; cortisol levels ([6]; phase 2 trials): no impact on cortisol levels; elevated blood potassium ([6]; phase 2 trials): rare occurrence of elevated blood potassium; steroid precursor accumulation ([6]; phase 2 trials): absence of steroid precursor accumulation
CCC(=O)NC1CCCc2c(-c3ccc4c(c3)C3CC3C(=O)N4C)cncc21 (single isomer, unassigned) [Compound 025] |  |  |  | 65.5 nM | 
CCC(=O)NC1CCOc2c(-c3cc4c(s3)N(C)C(=O)CC4)cncc21 (single isomer, unassigned) [Compound 046] | 1.17 | 18.0 10^-6 cm/s | 1.57 µM | 13.3 nM | 
CCC(=O)NC1CCCc2c(-c3nc4ccc(=O)n(C)c4s3)cncc21 (single isomer, unassigned) [Compound 041] |  |  | 6.75 µM | 42.2 nM | 
Cc1noc(C)c1C(=O)NC1CCCc2c(-c3cc4ccc(=O)n(C)c4cc3F)cncc21 (single isomer, unassigned) [Compound 020] |  |  | 1.13 µM | 25.5 nM | fraction unbound at 4 h, 2 µM (in vitro [1]): 0.144; fraction unbound at 4 h, 2 µM (in vitro [2]): 0.083; efflux ratio at 2.5 h, 2 µM [3]: 2.47; Papp A→B at 2.5 h, 2 µM [3]: 14 ×10⁻⁶ cm/s; fraction unbound at 4 h, 2 µM (in vitro [4]): 0.097; CLint scaled at 1 µM (in vitro [5]): 12.9 mL/min/kg
CCC(=NOC)NC1CCCc2c(-c3ccc4c(c3)CCC(=O)N4C)cncc21 (single isomer, unassigned) [Compound 005] | 0.70 | 23.1 10^-6 cm/s | 1.42 µM | 19.5 nM | 
CCC(=O)NC1CCCc2c(-c3ccc4c(c3)OCC(=O)N4C)cncc21 (single isomer, unassigned) [Compound 011] | 0.89 | 24.3 10^-6 cm/s | 6.91 µM | 59.7 nM | 
CCC(=O)NC1CCCc2c(-c3cc(F)c4c(c3)OCC(=O)N4C)cncc21 (single isomer, unassigned) [Compound 031] | 0.89 | 20.0 10^-6 cm/s | 4.74 µM | 22.6 nM | 
CCC(=O)NC1CCCc2c(-c3ccc4c(ccc(=O)n4C)c3Cl)cncc21 (single isomer, unassigned) [Compound 042] |  |  |  | 41 nM | 
CCS(=O)(=O)N1CC(Oc2cncc(-c3ccc4c(c3)OCC(=O)N4C)c2)C1 [Compound 016] |  |  |  | 63.6 nM | 
CCC(=O)NC1CCCc2c(-c3ccc4c(c3)OCC(=O)N4C)cncc21 (single isomer, unassigned) [Compound 010] |  |  | 6.88 µM | 71.5 nM | 
CCC(=O)NC1CCOc2c(-c3ccc4c(ccc(=O)n4C)c3)cncc21 (single isomer, unassigned) [Compound 044] |  |  | 19.5 µM | 32.9 nM | fraction unbound at 4 h, 2 µM (in vitro [1]): 0.295; fraction unbound at 4 h, 2 µM (in vitro [2]): 0.024; efflux ratio at 2.5 h, 2 µM [3]: 2.46; Papp A→B at 2.5 h, 2 µM [3]: 11 ×10⁻⁶ cm/s; fraction unbound at 4 h, 2 µM (in vitro [4]): 0.336
CCC(=O)NC1CCc2c(-c3ccc4c(ccc(=O)n4C)c3)cncc21 (single isomer, unassigned) [Compound 048] |  |  | 2.49 µM | 7.02 nM | 
CCC(=O)NC1CCN(C2CCCc3c(-c4ccc5c(ccc(=O)n5C)c4)cncc32)CC1 (single isomer, unassigned) [Compound 030] |  |  | 2.18 µM | 48.7 nM | 
Cc1noc(C)c1C(=O)NC1CCCc2c(-c3ccc4c(ccc(=O)n4C)c3)cncc21 (single isomer, unassigned) [Compound 015] |  |  |  | 31.8 nM | 
Cn1c(=O)ccc2cc(-c3cncc4c3CCC[C@H]4NC(=O)c3ncccc3Cl)ccc21 (single isomer, unassigned) [Compound 014] |  |  |  | 20.6 nM | 
